Columns and labels:
[1] = system: rNS3; test: ribavirin dose finding, rNS3-specific IgG by EIA (FIG. 8, TABLE 17); assay type: in vivo, mice
Description: The levels of antibody to the antigen were then determined by EIA.
A second set of experiments was also performed. […] The mice were bled at week six and rNS3-specific IgG levels were determined by EIA as described previously.

[2] = system: NS3; test: NS3-specific IgG subclasses by EIA after primary and booster injection (TABLE 18); assay type: in vivo, mice; details: 10 μg rNS3 with 0.1 or 1.0 mg ribavirin at weeks 0 and 4; bled week six
Description: The mice were bled at week six and NS3-specific IgG subclasses were determined by EIA as described previously.

[3] = system: NS3-specific CD4+ T cell proliferation; test: in vitro recall assay, CD4+ T cell proliferation of lymph node cells, [3H] thymidine; assay type: in vivo, mice; details: 100 μg rNS3 mixed with 1 mg ribavirin s.c.; ten days; 96 h culture (FIG. 9)
Description: This assay can be used with any ribavirin derivative or combinations of ribavirin derivatives to determine the extent that a particular vaccine formulation modulates a cellular immune response. […] The mice were sacrificed ten days post-immunization and their lymph nodes were harvested and drained. In vitro recall assays were then performed. (See e.g., Hultgren et al., J Gen Virol. 79:2381-91 (1998) and Hultgren et al., Clin. Diagn. Lab. Immunol. 4:630-632 (1997)). The amount of CD4^+ T cell proliferation was determined at 96 h of culture by the incorporation of [^3H] thymidine.

[4] = system: HBsAg; test: EIA end point antibody titer to HBsAg, Engerix vaccine with or without ribavirin (TABLE 19); assay type: in vivo, mice; details: 1 mg ribavirin with 2 μg vaccine i.p.; booster week four, bled week six
From the text: (Engerix, SKB). […] A booster containing the same mixture was given on week four and all mice were bled on week six.

[5] = system: inositol mono-phosphate (IMP) dehydrogenase (IMPDH); details: cited from earlier work

Compound: NC(=O)c1ncn([C@@H]2O[C@H](CO)[C@@H](O)[C@H]2O)n1 [ribavirin, 1-β-D-ribofuranosyl-1,2,4-triazole-3-carboxamide]
- effect on antibody levels ([1]; higher doses (1-10 mg) ribavirin with 20 μg rNS3, week three (FIG. 8)): enhance antibody levels at week three
- effect on antibody levels ([1]; low doses (<1 mg) ribavirin with 20 μg rNS3, week one (FIG. 8)): enhance antibody levels at week one
- effect on antibody levels ([1]; low doses (<1 mg) ribavirin with 20 μg rNS3, week three (FIG. 8)): not at week three
- effect on IgG subclass response [2]: does not change the IgG subclass response
- T cell proliferative response versus 100 μg rNS3 in PBS [3]: much greater T cell proliferative response
- effect on antibody response to Engerix vaccine [4]: enhanced the response
- mode of action on IMPDH [5]: competitive inhibitor
